Consider 27 compounds from patent publication US11603355B2, “Charged ion channel blockers and methods for use” (Nocion Therapeutics, Inc., priority 2019, dated 2023).

pIC50: −log10 of the molar value. Structures can show the parent of a compound that is named as a salt.

The nature of data set [1]: PAMPA membrane permeability assay. The data set is classed as in vitro ADME. The conditions noted are these: permeability coefficient, pH 7.4 buffer, GIT lipid, 4 hours incubation. The procedure, abridged: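 Passive diffusion across a GIT-lipid-painted artificial membrane at pH 7.4, with a 50 uM donor stock diluted from DMSO and a 4 h incubation. UV spectra of the donor, acceptor and reference plates were read, and the permeability coefficient was calculated from the AUCs, in 10^−6 cm/s.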

The target of another data set is T1, NaV1.7 (Homo sapiens, UniProt Q15858).
T1 construct: expressed in transfected cells; host or cells: HEK293 (tetracycline-inducible)
T1 sequence (Q15858 whole entry): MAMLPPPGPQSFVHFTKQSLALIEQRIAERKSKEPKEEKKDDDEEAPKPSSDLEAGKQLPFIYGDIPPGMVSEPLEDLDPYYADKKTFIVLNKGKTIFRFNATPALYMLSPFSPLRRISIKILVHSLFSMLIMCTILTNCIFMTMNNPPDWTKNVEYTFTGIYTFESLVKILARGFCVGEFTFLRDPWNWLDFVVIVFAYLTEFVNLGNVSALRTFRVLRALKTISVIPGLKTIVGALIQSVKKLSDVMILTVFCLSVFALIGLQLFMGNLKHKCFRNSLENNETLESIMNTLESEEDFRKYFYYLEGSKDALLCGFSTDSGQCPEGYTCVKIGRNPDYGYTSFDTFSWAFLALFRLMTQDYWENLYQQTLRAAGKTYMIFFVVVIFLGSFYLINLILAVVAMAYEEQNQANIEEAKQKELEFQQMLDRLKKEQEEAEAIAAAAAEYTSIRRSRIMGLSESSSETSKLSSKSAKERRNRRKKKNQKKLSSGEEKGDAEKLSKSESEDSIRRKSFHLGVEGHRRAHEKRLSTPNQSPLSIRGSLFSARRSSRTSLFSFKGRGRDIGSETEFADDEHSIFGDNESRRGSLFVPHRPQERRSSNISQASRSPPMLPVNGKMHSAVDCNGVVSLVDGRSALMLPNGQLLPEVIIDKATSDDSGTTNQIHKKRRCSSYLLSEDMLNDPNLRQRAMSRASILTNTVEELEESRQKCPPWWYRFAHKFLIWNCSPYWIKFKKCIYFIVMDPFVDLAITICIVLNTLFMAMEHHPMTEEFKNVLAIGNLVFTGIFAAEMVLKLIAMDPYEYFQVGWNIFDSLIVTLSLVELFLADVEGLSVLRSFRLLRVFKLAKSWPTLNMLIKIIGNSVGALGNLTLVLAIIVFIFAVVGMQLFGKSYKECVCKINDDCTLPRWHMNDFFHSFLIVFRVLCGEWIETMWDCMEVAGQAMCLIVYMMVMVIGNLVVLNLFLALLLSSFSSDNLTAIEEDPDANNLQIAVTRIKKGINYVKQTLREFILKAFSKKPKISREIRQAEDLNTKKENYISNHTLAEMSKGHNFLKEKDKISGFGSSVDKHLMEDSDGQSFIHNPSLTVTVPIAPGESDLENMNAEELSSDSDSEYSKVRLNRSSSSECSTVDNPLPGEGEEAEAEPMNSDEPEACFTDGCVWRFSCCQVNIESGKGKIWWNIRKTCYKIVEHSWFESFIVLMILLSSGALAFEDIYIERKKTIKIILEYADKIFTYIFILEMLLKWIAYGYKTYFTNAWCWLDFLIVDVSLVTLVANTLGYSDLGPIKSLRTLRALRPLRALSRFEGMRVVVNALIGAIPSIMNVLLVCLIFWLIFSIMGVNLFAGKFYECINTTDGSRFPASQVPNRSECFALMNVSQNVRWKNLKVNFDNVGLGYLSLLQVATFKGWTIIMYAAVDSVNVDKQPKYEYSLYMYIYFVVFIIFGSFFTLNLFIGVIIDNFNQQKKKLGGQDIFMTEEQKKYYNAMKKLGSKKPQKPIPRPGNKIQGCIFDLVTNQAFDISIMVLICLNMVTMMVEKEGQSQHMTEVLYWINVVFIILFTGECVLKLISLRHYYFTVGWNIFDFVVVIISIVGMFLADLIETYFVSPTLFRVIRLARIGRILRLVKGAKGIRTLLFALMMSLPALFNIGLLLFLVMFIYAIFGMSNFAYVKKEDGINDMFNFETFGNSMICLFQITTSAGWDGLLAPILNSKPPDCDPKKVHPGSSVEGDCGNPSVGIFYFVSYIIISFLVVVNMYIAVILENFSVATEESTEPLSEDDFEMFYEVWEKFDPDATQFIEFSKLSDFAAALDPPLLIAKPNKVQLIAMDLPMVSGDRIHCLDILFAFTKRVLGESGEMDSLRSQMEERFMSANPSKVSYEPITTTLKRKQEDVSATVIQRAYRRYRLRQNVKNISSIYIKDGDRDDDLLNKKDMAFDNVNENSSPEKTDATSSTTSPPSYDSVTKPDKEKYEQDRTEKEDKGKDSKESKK
In words: Automated patch clamp (Qube 384), external block of NaV1.7. The data set is classed as cell-based. Particulars: IC50, compound in external solution, HEK293 cells, read-out: Nav1.7 Extracellular Inhibition. Here is the method: NaV1.7 was expressed in HEK293 cells upon induction with tetracycline. Cells were cultured in DMEM containing 10% dialyzed Fetal Bovine Serum (VWR, Radnor, Pa.), 1% Glutamax (VWR, Radnor, Pa.), 1% Penicillin-Streptomycin (VWR, Radnor, Pa.), 100 mg/L Hygromycin (Thermo Fisher Scientific, Waltham, Mass. and 5 mg/L Blasticidin (Alfa Aesar, Haverhill, Mass.). Cells were grown and maintained at 37° C. in a humidified environment containing 10% CO2 in air. Cells were detached from the culture flask for passage and harvested using 0.05% Trypsin-EDTA (Thermo Fisher Scientific, Waltham, Mass.). To induce NaV1.7, cells were induced with tetracycline (0.1-1 μg/mL, IBI Scientific, Peosta, Iowa) the day before recording.
Before experiments, cells were washed with DPBS (VWR, Radnor, Pa.), digested with Detachin (VWR Radnor, Pa.) and then triturated 10 times in CHO Serum-Free Media (VWR Radnor, Pa.) to resuspend the cells and to break apart cell aggregates. Cells were counted and the final concentration was set at 2-5 million cells per mL.
The intracellular solution contained the following: 140 mM CsF, 1 mM/5 mM EGTA/CsOH, 10 mM HEPES, 10 mM NaCl, adjusted to pH 7.3 with CsOH, and osmolality to 320 with OSM solution. The external solution contained the following: 145 mM NaCl, 4 mM KCl, 1 mM MgCl2, 2 mM CaCl2), 10 mM HEPES, 10 mM Glucose, adjusted to pH 7.4 with CsOH and osmolality to 305 with OSM solution. The OSM solution was a normal Ringer solution containing (in mM) NaCl 155, HEPES 10, sucrose, KCl 3.5, CaCl2) 1.5, MgCl2 1 adjusted to pH 7.4 with NaOH. All chemicals are from Sigma-Aldrich, St. Louis, Mo. In order to test the degree of internal block by test compounds, the compounds were dissolved in internal solution at the indicated test concentration. […] In order to test the degree of external block by test compounds the compounds were dissolved in external solution at the indicated test concentration.
Automated Patch Clamps were performed on Qube 384 (Sophion Bioscience, Woburn Mass.) with multihole Qchips at a temperature setting of 22 degrees. The whole cells configuration was formed with default Qube seal and break-in parameter. The membrane potential was held at −100 mV before the voltage protocol began. Two voltage protocols were followed.
Step 1: Cells were held at −100 mV with a depolarized pulse to −20 mV for 10 ms, the interval was set at 5 s. Currents were corrected by default leak subtraction from every pulse. The duration was set at 5 mins.
Step 2: Cells were held at −100 mV with a depolarized pulse to −20 mV for 10 ms. The frequency was 5 Hz. Currents were corrected by leak subtraction calculated before step 2. The duration was set at 4 mins.
After Step 2, the external solution was changed with solutions containing test compounds. Qchips were held at −100 mV without pulsing. The total solution switching time was 8 minutes. After the external solution exchange, cells were recorded using the same procedure as step 2 for 10 minutes.
Data analysis was performed by Sophion Analyzer. Data were corrected with control cells (Non-Drug). The IC50 data were plotted with DR-plots/Hill function (a dose-response plot with a Hill fit). Representative examples of the invention were tested for extracellular inhibition of NaV 1.7 in the automated patch clamp assay. Activity Range is reported as IC50: “++++” ([…], “+++” (1-3 μM), “++” ([…]) or “+” (>10 μM). The results are presented below.
A general note: In patch-clamp work, channel activity is measured electrically.

For `CCNC(=O)C1CCC[N+](CC(=O)Nc2c(C)cccc2C)(Cc2ccccc2)C1.[Br-]` (stereo not shown) [Compound 54A, 1-benzyl-1-(2-((2,6-dimethylphenyl)amino)-2-oxoethyl)-3-(ethylcarbamoyl) piperidin-1-ium bromide], in data set [1], the “PAMPA (10^−6 cm/s)” value is reported as “+ (“+” (<0.1 10^−6 cm/s))”. Also, the pIC50 on NaV1.7 is under 5.00.

As for “1-benzyl-1-(2-((2-(dimethylcarbamoyl)-6-methylphenyl) amino)-2-oxoethyl) azepan-1-ium bromide [Compound 81A]”, the “PAMPA (10^−6 cm/s)” value in data set [1] is reported as “+ (“+” (<0.1 10^−6 cm/s))”. Further, the pIC50 at NaV1.7 is under 5.00.

`CCOC(=O)C1CCC[N+](CC(=O)Nc2c(C)cccc2C)(Cc2ccccc2)C1.[Br-]` (stereo not shown) [Compound 45A, 1-benzyl-1-(2-((2,6-dimethylphenyl)amino)-2-oxoethyl)-3-(ethoxycarbonyl) piperidin-1-ium bromide]: the “PAMPA (10^−6 cm/s)” value in data set [1] is given as “+ (“+” (<0.1 10^−6 cm/s))”. Also, the pIC50 at NaV1.7 was under 5.00.

Regarding `CCCCNc1ccc(NC(=O)C[N+]2(Cc3ccccc3)CCCCCC2)cc1.O=C[O-]` [Compound 41A, 1-benzyl-1-(2-((4-(butylamino)phenyl)amino)-2-oxoethyl) azepan-1-ium formate], the “PAMPA (10^−6 cm/s)” value in data set [1] is listed as “+ (“+” (<0.1 10^−6 cm/s))”. In addition, the pIC50 on NaV1.7 was under 5.00.

As for `Cc1cccc(C)c1N1CCCC([N+]2(Cc3ccccc3)CCCC2)C1=O.[Br-]` (stereo not shown) [Compound 91A, 1-benzyl-1-(1-(2,6-dimethylphenyl)-2-oxopiperidin-3-yl) pyrrolidin-1-ium bromide], in data set [1], the “PAMPA (10^−6 cm/s)” value is “+ (“+” (<0.1 10^−6 cm/s))”. The pIC50 on NaV1.7 was under 5.00.

Turning to `Cc1cccc(C)c1NC(=O)C[N+]1(Cc2ccccc2)CCCC(C(=O)N2CCCCC2)C1` (stereo not shown) [Compound 63A], the “PAMPA (10^−6 cm/s)” value in data set [1] is recorded as “+ (“+” (<0.1 10^−6 cm/s))”. Also, at NaV1.7, the pIC50 was 5.00 to 5.52.

With `[2H]c1c([2H])c([2H])c(C[N+]2(CC(=O)Nc3c(C)cccc3C)CCCCCC2)c([2H])c1[2H].[Cl-]` [Compound 33A, 1-(2-((2,6-dimethylphenyl)amino)-2-oxoethyl)-1-((phenyl-d5)methyl) azepan-1-ium chloride], the “PAMPA (10^−6 cm/s)” value in data set [1] is reported as “+ (“+” (<0.1 10^−6 cm/s))”.

`CCN(CC)C(=O)C1CCC[N+](CC(=O)Nc2c(C)cccc2C)(Cc2ccccc2)C1` (stereo not shown) [Compound 66A]: in data set [1], the “PAMPA (10^−6 cm/s)” value is on record as “+ (“+” (<0.1 10^−6 cm/s))”. Besides, the pIC50 at NaV1.7 is under 5.00.

In the case of `Cc1cccc(C)c1NC(=O)C[N+]1(Cc2ccccc2)CCCC(C(N)=O)C1.[Br-]` (mixture of isomers) [Compound 53A, 1-benzyl-3-carbamoyl-1-(2-((2,6-dimethylphenyl)amino)-2-oxoethyl) piperidin-1-ium bromide], the “PAMPA (10^−6 cm/s)” value in data set [1] is reported as “+ (“+” (<0.1 10^−6 cm/s))”. Moreover, at NaV1.7, the pIC50 is under 5.00.

With `CCCc1cccc(C)c1NC(=O)C[N+]1(Cc2ccccc2)CCCCCC1.[Br-]` [Compound 75A], in data set [1], the “PAMPA (10^−6 cm/s)” value is “+ (“+” (<0.1 10^−6 cm/s))”. Also, the pIC50 on NaV1.7 is 5.00 to 5.52.

With `Cc1cccc(C)c1C(=O)OCC[N+]1(Cc2ccccc2)CCCCCC1.[Br-]` [Compound 82A, 1-benzyl-1-(2-((2,6-dimethylbenzoyl)oxy)ethyl) azepan-1-ium bromide], the “PAMPA (10^−6 cm/s)” value in data set [1] was “+ (“+” (<0.1 10^−6 cm/s))”. Further, the pIC50 on NaV1.7 was 5.00 to 5.52.

For the compound `Cc1cccc(C)c1N(C)C(=O)C[N+]1(Cc2ccccc2)CCCCCC1` [Compound 38A, 1-benzyl-1-(2-((2,6-dimethylphenyl) (methyl)amino)-2-oxoethyl) azepan-1-ium formate], in data set [1], the “PAMPA (10^−6 cm/s)” value was “+ (“+” (<0.1 10^−6 cm/s))”. Further, on NaV1.7, the pIC50 was under 5.00.

For `Cc1cccc(C)c1N1CCC([N+]2(Cc3ccccc3)CCCCC2)C1=O.[Br-]` (stereo not shown) [Compound 89A, 1-benzyl-1-(1-(2,6-dimethylphenyl)-2-oxopyrrolidin-3-yl)piperidin-1-ium bromide], the “PAMPA (10^−6 cm/s)” value in data set [1] is “++ (“++” (0.1-2.0 10^−6 cm/s))”. Moreover, the pIC50 on NaV1.7 is under 5.00.

Regarding `Cc1cccc(C(C)C)c1NC(=O)C[N+]1(Cc2ccccc2)CCCCCC1.[Br-]` [Compound 74A], in data set [1], the “PAMPA (10^−6 cm/s)” value is reported as “+ (“+” (<0.1 10^−6 cm/s))”.

Turning to `Cc1cccc(C)c1NC(=O)C[N+]1(Cc2ccccc2)CCCC(C(=O)OC(C)C)C1` (mixture of isomers) [Compound 46A, 1-benzyl-1-(2-((2,6-dimethylphenyl)amino)-2-oxoethyl)-3-(isopropoxycarbonyl) piperidin-1-ium trifluoroacetate salt], in data set [1], the “PAMPA (10^−6 cm/s)” value was “+ (“+” (<0.1 10^−6 cm/s))”. Also, on NaV1.7, the pIC50 was 5.00 to 5.52.

In the case of `Cc1cccc(C)c1NC(=O)C[N+]1(Cc2ccccc2)CCCC(C(=O)N(C)C)C1.[Br-]` (stereo not shown) [Compound 65A], the “PAMPA (10^−6 cm/s)” value in data set [1] is listed as “+ (“+” (<0.1 10^−6 cm/s))”.

Turning to `CCOc1cccc(C)c1NC(=O)C[N+]1(Cc2ccccc2)CCCCCC1.[Br-]` [Compound 77A], the “PAMPA (10^−6 cm/s)” value in data set [1] was “+ (“+” (<0.1 10^−6 cm/s))”. In addition, at NaV1.7, the pIC50 was 5.52 to 6.00.

Take `Cc1cccc(C)c1NC(=O)C[N+]1(Cc2ccccc2)CCCC(C(=O)NC(C)C)C1` (stereo not shown) [Compound 56A]: the “PAMPA (10^−6 cm/s)” value in data set [1] is “+ (“+” (<0.1 10^−6 cm/s))”.

For the compound `COC(=O)C1CC[N+](CC(=O)Nc2c(C)cccc2C)(Cc2ccccc2)CC1.[Br-]` (stereo not shown) [Compound 44A, 1-benzyl-1-(2-((2,6-dimethylphenyl)amino)-2-oxoethyl)-4-(methoxycarbonyl) piperidin-1-ium bromide], in data set [1], the “PAMPA (10^−6 cm/s)” value was “+ (“+” (<0.1 10^−6 cm/s))”. Moreover, the pIC50 on NaV1.7 was under 5.00.

Consider `Cc1cccc(C#N)c1NC(=O)C[N+]1(Cc2ccccc2)CCCCCC1.[Br-]` [Compound 72A], for which, in data set [1], the “PAMPA (10^−6 cm/s)” value is “+ (“+” (<0.1 10^−6 cm/s))”.

Turning to `Cc1cccc(-c2ccccc2)c1NC(=O)C[N+]1(Cc2ccccc2)CCCCCC1.[Br-]` [Compound 76A], the “PAMPA (10^−6 cm/s)” value in data set [1] is recorded as “+ (“+” (<0.1 10^−6 cm/s))”.

In the case of `COC(=O)c1ccc(C[N+]2(CC(=O)Nc3c(C)cccc3C)CCCCC2)cc1.[Br-]` [Compound 36A, 1-(2-((2,6-dimethylphenyl)amino)-2-oxoethyl)-1-(4-(methoxycarbonyl)benzyl) piperidin-1-ium bromide], the “PAMPA (10^−6 cm/s)” value in data set [1] is on record as “+ (“+” (<0.1 10^−6 cm/s))”. Further, the pIC50 at NaV1.7 was under 5.00.

As for `CCCNC(=O)C1CCC[N+](CC(=O)Nc2c(C)cccc2C)(Cc2ccccc2)C1` (stereo not shown) [Compound 57A], the “PAMPA (10^−6 cm/s)” value in data set [1] is given as “+ (“+” (<0.1 10^−6 cm/s))”. Moreover, the pIC50 at NaV1.7 is 5.00 to 5.52.

As to `COC(=O)c1cccc(C[N+]2(CC(=O)Nc3c(C)cccc3C)CCCCC2)c1.[Br-]` [Compound 35A, 1-(2-((2,6-dimethylphenyl)amino)-2-oxoethyl)-1-(3-(methoxycarbonyl)benzyl) piperidin-1-ium bromide], the “PAMPA (10^−6 cm/s)” value in data set [1] is “+ (“+” (<0.1 10^−6 cm/s))”. Further, the pIC50 on NaV1.7 is under 5.00.

Take `Cc1cccc(F)c1NC(=O)C[N+]1(Cc2ccccc2)CCCCCC1.[Br-]` [Compound 69A, 1-benzyl-1-(2-((2-fluoro-6-methylphenyl)amino)-2-oxoethyl)azepan-1-ium bromide]: in data set [1], the “PAMPA (10^−6 cm/s)” value is listed as “++ (“++” (0.1-2.0 10^−6 cm/s))”. The pIC50 at NaV1.7 is 5.00 to 5.52.

As for `COc1cccc(C)c1NC(=O)C[N+]1(Cc2ccccc2)CCCCCC1` [Compound 71A], in data set [1], the “PAMPA (10^−6 cm/s)” value was “+ (“+” (<0.1 10^−6 cm/s))”.

Turning to `CCC(=O)OC1CCC[N+](CC(=O)Nc2c(C)cccc2C)(Cc2ccccc2)C1.[Br-]` (stereo not shown) [Compound 52A, 1-benzyl-1-(2-((2,6-dimethylphenyl)amino)-2-oxoethyl)-3-(propionyloxy) piperidin-1-ium bromide], the “PAMPA (10^−6 cm/s)” value in data set [1] is “+ (“+” (<0.1 10^−6 cm/s))”.
